In patent US20080031822A1, “Methods of modeling migraine pain and identifying candidate compounds for the treatment of migraine” (priority 2006, published 2008):

Experiments:
Male Sprague Dawley rats [1] = assay: Dural inflammation migraine model, facial tactile hyperesthesia (50% facial response threshold, von Frey filaments); format: in vivo, rat
Male Sprague Dawley rats [2] = assay: Dural inflammation migraine model, tactile hyperesthesia of the hindpaw (50% paw withdrawal threshold, von Frey filaments); format: in vivo, rat

CNS(=O)(=O)Cc1ccc2[nH]cc(CCN(C)C)c2c1 [sumatriptan]
50% facial response threshold versus control rats with dural IM cocktail only (Male Sprague Dawley rats [1]; systemic administration thirty minutes after IM cocktail (FIGS. 6A-6B)): increase in facial response threshold
50% paw withdrawal threshold versus control rats with dural IM cocktail only (Male Sprague Dawley rats [2]; 0.6 mg/kg s.c. ten minutes prior to IM cocktail (FIG. 8)): increase in paw withdrawal threshold
tactile hyperesthesia of the hindpaw induced by dural inflammation (Male Sprague Dawley rats [2]; sumatriptan succinate subcutaneously 1 mg/kg five minutes prior to dural IM cocktail, results two hours after dural treatment (FIG. 10)): attenuates tactile hyperesthesia of the hindpaw

CCCCN1CCCCC1C(=O)Nc1c(C)cccc1C (stereo not shown) [bupivacaine]
50% facial response threshold versus control rats with dural IM cocktail only (Male Sprague Dawley rats [1]; administered in the RVM thirty minutes after IM cocktail (FIGS. 7A-7B)): increase in facial response threshold
50% paw withdrawal threshold versus control rats with dural IM cocktail only (Male Sprague Dawley rats [2]; administered in the RVM thirty minutes after IM cocktail (FIG. 9A)): increase in paw withdrawal threshold
50% paw withdrawal threshold versus control rats with dural IM cocktail only (Male Sprague Dawley rats [2]; administered in the RVM two hours after IM cocktail (FIG. 9B)): significant increase in test animal paw withdrawal threshold

N[C@@H](CCC(=O)N[C@@H](CSN=O)C(=O)NCC(=O)O)C(=O)O [SNOG, s-nitrosylglutathione]
tactile hyperesthesia of the hindpaw after administration to the dura (Male Sprague Dawley rats [2]; administered to the dura, results two hours after treatment (FIG. 4)): produced a tactile hyperesthesia effect similar to that induced by administration of the IM cocktail
